Where two headings read alike, the source gives them in different places.
Columns and labels:
[1] = Whole blood stability, human
Experimental: (§1) Procedures for blood Stability. • A. 398 μL of blood from each species was added to an incubation plate, which was pre-warmed at 37C for 15 minutes. • B. After the pre-incubation, 2 μL of working solution (test compounds or control compounds) was spiked to 398 μL of blood to reach a final concentration of 1 μM for test compounds and 5 μM for control compounds. The final concentration of organic solvents is 0.5%. The assays were performed in duplicate. • C. The reaction samples were incubated at 37C. • D. Aliquots of 50 μL were taken from the reaction samples at 0, 15, 30, 60 and 120 minutes. The reaction was stopped by the addition of 50 μL ultrapure water and 400 μL cold acetonitrile. • E. All samples were vortexed for 10 minutes, followed by centrifugation at 3,220 g for 40 minutes to precipitate proteins. 100 μL of the supernatant was then transferred to a new plate. The supernatant was diluted with ultrapure water as needed for detection by LC-MS/MS. Sample Analysis
(§2) Samples were analyzed by LC-MS/MS to measure the concentration of the test compounds.
(§3) All calculations were carried out using Microsoft Excel and according to standard analysis methods that are known in the art.

[2] = Whole blood stability, rat; details: rat, blood; for Remaining Percentages (%) 0 min: 0 h, 1 μM
Experimental: as §1, §2, §3

[3] = Hepatocyte stability, dog
Experimental: • 1. 10 mM stock solutions of test compounds and positive control compound were prepared in appropriate solvent (DMSO). • 2. In separate conical tubes, 10 mM test compound and positive controls were diluted to 100 μM by combining 198 μL of 50% acetonitrile/50% water and 2 μL of 10 mM stock. Preparation of Hepatocytes • 1. Incubation medium (William's E Medium supplemented with GlutaMAX) and hepatocyte thawing medium were placed in a 37C water bath and warmed for at least 15 minutes prior to use. • 2. A vial of cryopreserved hepatocytes was thawed by placing the vial in a 37C water bath and gently shaken for 2 minutes. After thawing was completed, the vial was cleaned with 70% ethanol and transferred to a biosafety cabinet. • 3. Using wide-bore pipette tips, hepatocytes were transferred into a 50 mL conical tube containing thawing medium. The 50 mL conical tube was placed into a centrifuge and spun at 100 g for 10 minutes. […] Using AO/PI Staining, cells were counted to determine the viable cell density. Cells were diluted with incubation medium to a working cell density of 0.5×10^6 viable cells/mL. Procedure for Stability Determination • 1. 198 μL of hepatocytes were pipetted into each well of a 96-well non-coated plate. The plate was placed in the incubator to allow the hepatocytes to warm for 10 minutes. • 2. 2 μL of the 100 μM test compound or positive control was pipetted into respective wells of the 96-well non-coated plate to start the reaction. The plate was returned to the incubator for the designed time points. • 3. The contents of the wells were removed in 25 μL aliquots at time points of 0.5, 15, 30, 60, 90 and 120 minutes. The aliquots were then mixed with 6 volumes (150 μL) of acetonitrile containing an internal standard, IS (100 nM alprazolam, 200 nM caffeine and 100 nM tolbutamide), to terminate the reaction. Samples were vortexed for 5 minutes and centrifuged for 45 minutes at 3,220 g. Aliquots of 100 μL of supernatant were diluted with 100 μL ultra-pure water, and the mixture was used for LC/MS/MS analysis. All incubations were performed in duplicate. Data Analysis
as §3

[4] = biological target: D2L (h) (antagonist radioligand) (Homo sapiens, UniProt P14416); details: at the tested concentration; negative values set to zero
CYP1A2 = biological target: T1, CYP1A2 (Homo sapiens, UniProt P05177); test: Incubation with recombinant CYP1A2
T1 sequence (P05177 1-516): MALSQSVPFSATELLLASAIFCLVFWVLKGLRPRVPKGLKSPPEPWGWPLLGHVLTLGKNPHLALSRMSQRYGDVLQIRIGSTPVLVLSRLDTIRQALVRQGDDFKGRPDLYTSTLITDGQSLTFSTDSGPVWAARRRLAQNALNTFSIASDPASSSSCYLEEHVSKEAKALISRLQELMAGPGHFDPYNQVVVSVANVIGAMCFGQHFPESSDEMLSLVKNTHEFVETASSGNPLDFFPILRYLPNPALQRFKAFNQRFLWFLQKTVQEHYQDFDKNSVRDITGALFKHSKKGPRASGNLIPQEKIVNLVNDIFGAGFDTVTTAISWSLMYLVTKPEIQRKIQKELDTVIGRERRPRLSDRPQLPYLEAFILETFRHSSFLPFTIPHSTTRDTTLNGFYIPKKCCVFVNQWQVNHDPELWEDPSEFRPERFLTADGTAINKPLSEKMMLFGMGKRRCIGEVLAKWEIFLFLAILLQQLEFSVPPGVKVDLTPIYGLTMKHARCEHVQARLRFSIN

CYP2C8 = biological target: T2, CYP2C8 (Homo sapiens, UniProt P10632); test: Incubation with recombinant CYP2C8; details: for t1/2: unit not given
T2 sequence (P10632 1-490): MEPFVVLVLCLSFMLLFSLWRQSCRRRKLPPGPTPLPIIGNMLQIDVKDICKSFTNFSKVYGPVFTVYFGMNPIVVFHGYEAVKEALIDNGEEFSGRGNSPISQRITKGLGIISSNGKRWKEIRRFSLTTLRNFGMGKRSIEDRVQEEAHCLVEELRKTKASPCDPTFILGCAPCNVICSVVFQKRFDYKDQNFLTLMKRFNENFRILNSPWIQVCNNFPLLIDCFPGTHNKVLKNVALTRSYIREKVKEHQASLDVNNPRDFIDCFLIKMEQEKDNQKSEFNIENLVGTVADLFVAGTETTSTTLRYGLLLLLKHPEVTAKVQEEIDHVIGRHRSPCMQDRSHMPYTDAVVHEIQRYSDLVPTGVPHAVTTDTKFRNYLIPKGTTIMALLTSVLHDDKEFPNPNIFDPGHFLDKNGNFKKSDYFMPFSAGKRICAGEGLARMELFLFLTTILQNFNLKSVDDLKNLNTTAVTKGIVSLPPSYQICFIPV

CYP2E1 = CYP2E1 (Homo sapiens, UniProt P05181); test: Incubation with recombinant CYP2E1; details: for t1/2: unit not given
CYP3A4 = CYP3A4 (Homo sapiens, UniProt P08684); test: Incubation with recombinant CYP3A4
CYP2C19 = CYP2C19 (Homo sapiens, UniProt P33261); test: Incubation with recombinant CYP2C19
Chain of CYP2C19 (P33261 whole entry): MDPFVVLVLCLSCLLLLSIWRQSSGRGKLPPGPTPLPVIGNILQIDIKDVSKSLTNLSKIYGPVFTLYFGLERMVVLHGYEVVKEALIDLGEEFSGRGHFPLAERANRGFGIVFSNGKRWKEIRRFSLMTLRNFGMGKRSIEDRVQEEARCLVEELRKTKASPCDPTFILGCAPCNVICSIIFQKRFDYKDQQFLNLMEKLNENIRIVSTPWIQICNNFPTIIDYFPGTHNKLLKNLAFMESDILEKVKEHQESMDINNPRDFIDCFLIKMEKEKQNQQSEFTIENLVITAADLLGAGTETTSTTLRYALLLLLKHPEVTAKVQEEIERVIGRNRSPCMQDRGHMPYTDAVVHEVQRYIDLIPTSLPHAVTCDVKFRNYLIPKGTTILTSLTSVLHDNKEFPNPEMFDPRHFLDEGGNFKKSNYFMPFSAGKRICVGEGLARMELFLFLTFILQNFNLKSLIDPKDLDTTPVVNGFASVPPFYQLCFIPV

Chain of CYP3A4 (P08684 whole entry): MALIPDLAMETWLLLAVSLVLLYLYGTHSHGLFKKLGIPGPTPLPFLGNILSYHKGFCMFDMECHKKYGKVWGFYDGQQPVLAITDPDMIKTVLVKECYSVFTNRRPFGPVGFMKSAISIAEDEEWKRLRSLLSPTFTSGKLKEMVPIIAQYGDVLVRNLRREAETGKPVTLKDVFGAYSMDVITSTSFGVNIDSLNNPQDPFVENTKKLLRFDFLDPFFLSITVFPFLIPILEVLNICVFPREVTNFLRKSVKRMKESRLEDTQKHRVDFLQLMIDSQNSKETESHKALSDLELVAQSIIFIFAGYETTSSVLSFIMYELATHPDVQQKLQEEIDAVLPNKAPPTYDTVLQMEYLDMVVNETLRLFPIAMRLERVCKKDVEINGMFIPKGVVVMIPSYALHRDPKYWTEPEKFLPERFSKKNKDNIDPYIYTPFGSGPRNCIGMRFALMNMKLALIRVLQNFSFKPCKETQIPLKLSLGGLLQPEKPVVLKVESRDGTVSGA
Chain of CYP2E1 (P05181 whole entry): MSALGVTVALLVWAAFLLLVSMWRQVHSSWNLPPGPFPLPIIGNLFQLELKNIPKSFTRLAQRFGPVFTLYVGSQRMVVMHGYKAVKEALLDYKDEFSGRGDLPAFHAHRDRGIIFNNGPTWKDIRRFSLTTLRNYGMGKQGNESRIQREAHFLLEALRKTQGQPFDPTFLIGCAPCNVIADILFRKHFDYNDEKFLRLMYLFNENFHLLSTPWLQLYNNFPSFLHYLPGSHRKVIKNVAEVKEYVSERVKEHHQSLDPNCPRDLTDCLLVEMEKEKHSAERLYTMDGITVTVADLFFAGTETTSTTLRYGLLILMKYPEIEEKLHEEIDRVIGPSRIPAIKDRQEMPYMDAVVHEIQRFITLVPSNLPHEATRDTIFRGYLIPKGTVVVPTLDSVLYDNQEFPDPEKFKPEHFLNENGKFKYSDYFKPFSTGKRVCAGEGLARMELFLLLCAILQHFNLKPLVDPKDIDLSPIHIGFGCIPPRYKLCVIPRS
Chain of D2L (h) (antagonist radioligand) (P14416 whole entry): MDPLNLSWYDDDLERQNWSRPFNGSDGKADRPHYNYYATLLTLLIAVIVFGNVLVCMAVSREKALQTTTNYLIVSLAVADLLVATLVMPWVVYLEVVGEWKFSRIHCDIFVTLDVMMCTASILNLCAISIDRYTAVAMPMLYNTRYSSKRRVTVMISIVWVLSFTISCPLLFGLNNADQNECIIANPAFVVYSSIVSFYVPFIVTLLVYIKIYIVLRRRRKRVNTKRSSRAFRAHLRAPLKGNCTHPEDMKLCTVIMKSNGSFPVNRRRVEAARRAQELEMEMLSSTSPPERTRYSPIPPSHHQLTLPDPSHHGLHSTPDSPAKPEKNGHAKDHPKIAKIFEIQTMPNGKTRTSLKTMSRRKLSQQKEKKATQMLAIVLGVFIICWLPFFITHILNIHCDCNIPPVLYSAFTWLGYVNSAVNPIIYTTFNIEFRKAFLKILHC

## O[C@@](CCN1CCCCC1)(c1ccccc1)C1CCCCC1 [(R)-THP, (R)-trihexyphenidyl]
[1]; human whole blood, 37C
  Remaining Percentages (%) 0 min: 100.00%
  t1/2: ∞
[2]
  t1/2: ∞
  Remaining Percentages (%) 0 min: 100.00%
[3]; cryopreserved hepatocytes
  CLint scaled at 1 μM: 187 mL/min/kg
  half-life at 1 μM: 40.2 min
  hepatocyte CLint at 1 μM: 34.5 µL/min/1e6 cells
[4]
  signal, D2L (h) (antagonist radioligand): 0.32%
CYP1A2
  CLint: 0.00 µL/min/pmol
  Substrates of CYP1A2: not metabolized
CYP1A2; listed as R
  Substrates of CYP1A2: no R
CYP2C8
  CLint: 0.00 µL/min/pmol
  t1/2: ∞
CYP2E1
  CLint: 0.00 µL/min/pmol
  t1/2: ∞
CYP3A4
  Substrates of CYP3A4: Rac, R and S
CYP3A4; human
  half-life: 30.7 min
CYP2C19
  Substrates of CYP2C19: Rac, R and S

## O[C@](CCN1CCCCC1)(c1ccccc1)C1CCCCC1 [(S)-THP, (S)-trihexyphenidyl]
[4]
  signal, D2L (h) (antagonist radioligand): 28.50%
CYP1A2
  CLint: 0.20 µL/min/pmol
  Substrates of CYP1A2: is metabolized
CYP1A2; human
  half-life: 34.6 min
CYP1A2; listed as S
  Substrates of CYP1A2: S and Rac
CYP2C8
  CLint: 0.00 µL/min/pmol
  t1/2: ∞
CYP2E1
  CLint: 0.00 µL/min/pmol
  t1/2: ∞
CYP3A4
  Substrates of CYP3A4: Rac, R and S
CYP2C19
  Substrates of CYP2C19: Rac, R and S

## C[C@@H](C[N+](C)(C)C)OC(N)=O.[Cl-] [(S)-BTC, (S)-bethanechol]
[1]; human whole blood, 37C
  Remaining Percentages (%) 0 min: 100.00%
[1]; human, blood
  t1/2: ∞
[2]
  t1/2: ∞
  Remaining Percentages (%) 0 min: 100.00%
[3]; hepatocytes
  Predicted Hepatic CLH: 0 mL/min/kg
  in vitro t1/2: ∞

From US12290513B2, “Therapeutic methods and compositions for treating movement disorders” (Vima Therapeutics, Inc., priority 2023, dated 2025)
